Tests used:
[1] = system: tau/MAPT phosphorylation in TS21 neurons; test: Tau/MAPT phosphorylation in TS21 neuronal cultures, Western blotting; format: cell-based, human; conditions: treated for 10 days
Description: (§1) Overexpression of DYRK1A in DS is thought to account for increased tau phosphorylation by GSK3β and the increase in DYRK1A positive neurofibrillary tangles (NFTs) in the brains of people with DS and AD. Therefore therapeutic inhibition of DYRK1A activity in DS and AD may delay the progression of neurodegeneration in DS and AD. The following experiment on reduction of tau phosphorylation by inhibition of DYRK1A by inhibitor 4-93 was performed as described in the literature (Shi, Y. et al. A human stem cell model of early Alzheimer's disease pathology in Down syndrome. Sci. Transl. Med. 4, 124ra29 (2012)).
(§2) Neuronal cultures at day 40 were treated with DYRK1A inhibitors and control compounds for 10 days. Total protein was extracted and total tau and phosphorylated tau/MAPT was quantified by Western blotting using antibodies to total tau and a number of phospho-tau epitopes.

[2] = system: tau/MAPT phosphorylation in control neurons; test: Tau/MAPT phosphorylation in control neurons, Western blotting; format: cell-based, human; conditions: treated for 10 days, compared to DMSO treated controls
Description: as §1, §2

DYRK1A = DYRK1A (Homo sapiens (Human), UniProt Q13627); test: IC50 determination, methodology similar to Example A (Example B); format: biochemical; conditions: against DYRK1A; Table 8
Description: This method is sensitive, accurate and provides a direct measure of activity.

[3] = TS21 neurons, normalised to β-actin, vs DMSO treated controls

Row | Structure (SMILES) | total tau protein levels ([1]; TS21 neuronal cultures) | tau phosphorylation at Ser 396 [1, 3] | tau phosphorylation at Ser 404 [1, 3] | tau/MAPT phosphorylation at Ser 396 [2] | tau/MAPT phosphorylation at Ser 404 [2] | IC50 (DYRK1A) [nM]
1 | C[C@H](NC(=O)Cc1cc(F)cc(F)c1)C(=O)N[C@H](C(=O)OC(C)(C)C)c1ccccc1 [DAPT, reference compound] | increased | increased | increased | increased | increased | 
2 | COc1ccc(Nc2ccncc2-c2nc3cc(OC)ccc3s2)c(F)c1 [PST-131] |  |  |  |  |  | 351
